In patent US10442788B2, “Hepatitis B antiviral agents” (ENANTA PHARMACEUTICALS, INC., priority 2015, dated 2019):

How the values were obtained:
[1] = tested on: HBV; experiment: HepAD38 antiviral assay: reduction of viral product accumulation (virion DNA by qPCR, HBsAg or HBeAg by ELISA); assay type: cell-based; conditions: Hepatitis B virus, 120 h; HepAD38 cells, five days after compound addition; 50% reduction of viral product accumulation relative to no drug controls; read-out: HepAD38 EC50
Method in brief: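 Tetracycline-washed HepAD38 cells treated with compound (DMSO diluted 1:200) for 5 days, or 8 days with media and compound refreshed on d2 and d5. Virion DNA from lysates quantified by qPCR; HBsAg or HBeAg by ELISA. EC50 is the concentration giving 50% reduction versus no-drug controls, reported as ranges A<1 μM, B 1-10 μM, C>10 μM.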

[2] = Compound toxicity, ATPLite total ATP levels; assay type: cell-based; conditions: human, HepAD38 cells; 15,000 cells/well, three days after compound addition; 50% reduction of total ATP levels relative to no drug controls
Description: Methods: HepAD38 cells are maintained as previously reported (Ladner et al, Antimicrob. Agents Chemother. 1997, […], 1715). Briefly, cells are passaged upon attaining confluency in DMEM/F12 media in the presence of 10% FBS, Penn/Strep, 250 μg/mL G418, and 1 ug/ml tetracycline. Novel compounds are screened by first washing cells three times with PBS to remove tetracycline, and plating in 96 well plates at 35,000 cells/well. Compounds dissolved in DMSO are then diluted 1:200 into wells containing cells. Five days after compound addition, material is harvested for analysis. For an extended 8 day analysis, cells are plated and treated as described above, but media and compound are refreshed on d2 and d5 post initial treatment.
Compound toxicity is evaluated by seeding cells at 15,000 cells/well and treating with compound as described above. Three days after compound addition, cells are treated with ATPLite reagent and compound concentrations that reduce total ATP levels in wells by 50% relative to no drug controls (CC50) are reported; CC50 ranges are as follows: A>30 μM; B 10-30 μM; C<10 μM.

SMILES	EC50 [1] [µM]	CC50 at 3 days [2] [µM]
N#Cc1cc(-c2cc(-c3ccc(Cl)c(S(=O)(=O)N4CCC(O)CC4)c3)n[nH]2)ccc1F [Example 27]	1 to 10	> 30
C#Cc1cc(-c2cc(-c3ccc(Cl)c(S(=O)(=O)N4CCC(O)CC4)c3)n[nH]2)ccc1F [Example 28]	< 1	< 10
O=S(=O)(c1cc(-c2cc(-c3ccc(F)c(Cl)c3)[nH]n2)ccc1Cl)N1CCC(O)CC1 [Example 29]	< 1	< 10
O=S(=O)(c1cc(-c2nc(-c3cc(F)c(F)c(F)c3)c[nH]2)ccc1Cl)N1CCC(O)CC1 [Example 30]	1 to 10	10 to 30
O=C1CCN(S(=O)(=O)c2cc(-c3ncc(-c4ccc(F)c(Br)c4)[nH]3)ccc2Cl)CC1 [Example 31]	1 to 10	10 to 30
CC1(O)CCN(S(=O)(=O)c2cc(-c3ncc(-c4ccc(F)c(Br)c4)[nH]3)ccc2Cl)CC1 [Example 32]	1 to 10	10 to 30
O=S(=O)(c1cc(-c2nc(-c3ccccn3)c[nH]2)ccc1Cl)N1CCC(O)CC1 [Example 33]	> 10	10 to 30
CC(=O)OC1CCN(S(=O)(=O)c2cc(-c3nc(-c4ccc(F)c(Br)c4)c[nH]3)ccc2Cl)CC1 [Example 35]	1 to 10	10 to 30
COC(=O)[C@@H]1CCCN1S(=O)(=O)c1cc(-c2ncc(-c3ccc(F)c(Br)c3)[nH]2)ccc1Cl [Example 36]	> 10	> 30
O=S(=O)(c1cc(-c2ncc(-c3ccc(F)c(Br)c3)[nH]2)ccc1Cl)N1CCCCC1 [Example 37]	< 1	< 10
O=S(=O)(NCCO)c1cc(-c2ncc(-c3ccc(F)c(Br)c3)[nH]2)ccc1Cl [Example 38]	< 1	10 to 30
COC1CCN(S(=O)(=O)c2cc(-c3ncc(-c4ccc(F)c(Br)c4)[nH]3)ccc2Cl)CC1 [Example 39]	< 1	10 to 30
O=S(=O)(c1cc(-c2nc(-c3ccc(F)cc3)c[nH]2)ccc1Cl)N1CCC(O)CC1 [Example 40]	1 to 10	> 30
CC(C)OC(=O)[C@@H](C)NS(=O)(=O)c1cc(-c2ncc(-c3ccc(F)c(Br)c3)[nH]2)ccc1Cl [Example 41]	1 to 10	> 30
O=S(=O)(c1cc(-c2ncc(-c3ccc(F)c(Br)c3)[nH]2)ccc1Cl)N1CCOCC1 [Example 42]	< 1	10 to 30
O=S(=O)(NCCCO)c1cc(-c2ncc(-c3ccc(F)c(Br)c3)[nH]2)ccc1Cl [Example 43]	< 1	10 to 30
O=S(=O)(c1cc(-c2ncc(-c3ccc(F)c(Br)c3)[nH]2)ccc1Cl)N1CCC(F)CC1 [Example 44]	< 1	< 10
Cc1cc(-c2cnc(-c3ccc(Cl)c(S(=O)(=O)N4CCC(O)CC4)c3)[nH]2)ccc1F [Example 45]	< 1	> 30
COc1cc(-c2cnc(-c3ccc(Cl)c(S(=O)(=O)N4CCC(O)CC4)c3)[nH]2)ccc1F [Example 46]	< 1	> 30
N#Cc1ccc(-c2cnc(-c3ccc(Cl)c(S(=O)(=O)N4CCC(O)CC4)c3)[nH]2)cc1F [Example 47]	< 1	> 30
O=S(=O)(c1cc(-c2ncc(-c3ccc(F)c(C4CC4)c3)[nH]2)ccc1Cl)N1CCC(O)CC1 [Example 48]	< 1	10 to 30
O=S(=O)(c1cc(-c2ncc(-c3cccc(F)c3)[nH]2)ccc1Cl)N1CCC(O)CC1 [Example 49]	< 1	10 to 30
O=S(=O)(c1cc(-c2ncc(-c3cccnc3)[nH]2)ccc1Cl)N1CCC(O)CC1 [Example 50]	1 to 10	> 30

SMILES	EC50 [1] [µM]	CC50 at 3 days [2] [µM]
O=S(=O)(c1cc(-c2nc(-c3ccncc3)c[nH]2)ccc1Cl)N1CCC(O)CC1 [Example 51]	> 10	> 30
O=S(=O)(c1cc(-c2nc(-c3ccc(Cl)cc3)c[nH]2)ccc1Cl)N1CCC(O)CC1 [Example 52]	< 1	10 to 30
O=S(=O)(c1cc(-c2nc(-c3cccc(Cl)c3)c[nH]2)ccc1Cl)N1CCC(O)CC1 [Example 53]	< 1	10 to 30
O=S(=O)(c1cc(-c2nc(-c3cccc(Br)c3)c[nH]2)ccc1Cl)N1CCC(O)CC1 [Example 54]	< 1	> 30
O=S(=O)(c1cc(-c2nc(-c3ccc(F)c(C(F)(F)F)c3)c[nH]2)ccc1Cl)N1CCC(O)CC1 [Example 55]	< 1	10 to 30
CC(C)(C)OC(=O)NCCCNS(=O)(=O)c1cc(-c2ncc(-c3ccc(F)c(Br)c3)[nH]2)ccc1Cl [Example 56]	< 1	< 10
CN(C)S(=O)(=O)c1cc(-c2ncc(-c3ccc(F)c(Br)c3)[nH]2)ccc1Cl [Example 57]	1 to 10	10 to 30
COC(=O)[C@H]1CCN(S(=O)(=O)c2cc(-c3ncc(-c4ccc(F)c(Br)c4)[nH]3)ccc2Cl)C1 [Example 58]	1 to 10	> 30
O=C1CCN(S(=O)(=O)c2cc(-c3nc(-c4ccc(Br)c(F)c4)c[nH]3)ccc2Cl)CC1 [Example 59]	< 1	10 to 30
COC(=O)[C@@H](NS(=O)(=O)c1cc(-c2ncc(-c3ccc(F)c(Br)c3)[nH]2)ccc1Cl)C(C)C [Example 60]	1 to 10	10 to 30
NCCCNS(=O)(=O)c1cc(-c2ncc(-c3ccc(F)c(Br)c3)[nH]2)ccc1Cl [Example 61]	1 to 10	< 10
COC(=O)NCCCNS(=O)(=O)c1cc(-c2ncc(-c3ccc(F)c(Br)c3)[nH]2)ccc1Cl [Example 62]	1 to 10	10 to 30
COC(=O)NCCCNS(=O)(=O)c1cc(-c2ncc(-c3ccc(F)c(Br)c3)n2C(=O)OC)ccc1Cl [Example 63]	1 to 10	10 to 30
O=C1CN(S(=O)(=O)c2cc(-c3ncc(-c4ccc(F)c(Br)c4)[nH]3)ccc2Cl)CCN1 [Example 64]	1 to 10	10 to 30
O=S(=O)(c1cc(-c2ncc(-c3ccc(F)c(O)c3)[nH]2)ccc1Cl)N1CCC(O)CC1 [Example 65]	> 10	> 30
O=S(=O)(c1cc(-c2nc(-c3ccc(Br)cc3)c[nH]2)ccc1Cl)N1CCC(O)CC1 [Example 66]	< 1	10 to 30
Cc1cc(F)ccc1-c1c[nH]c(-c2ccc(Cl)c(S(=O)(=O)N3CCC(O)CC3)c2)n1 [Example 67]	1 to 10	10 to 30
O=S(=O)(c1cc(-c2nc(-c3ccccc3F)c[nH]2)ccc1Cl)N1CCC(O)CC1 [Example 68]	1 to 10	> 30
O=S(=O)(c1cc(-c2nc(-c3ccsc3)c[nH]2)ccc1Cl)N1CCC(O)CC1 [Example 69]	1 to 10	> 30
O=S(=O)(c1cc(-c2nc(-c3ccc(Cl)c(Cl)c3)c[nH]2)ccc1Cl)N1CCC(O)CC1 [Example 71]	< 1	10 to 30
O=S(=O)(c1cc(-c2nc(-c3ccc(Cl)c(F)c3)c[nH]2)ccc1Cl)N1CCC(O)CC1 [Example 72]	< 1	10 to 30
Cc1ccc(-c2c[nH]c(-c3ccc(Cl)c(S(=O)(=O)N4CCC(O)CC4)c3)n2)cc1F [Example 73]	1 to 10	> 30
